What was measured:
Assay type in all cases: biochemical
[1] = molecular target: T1, BAM3 (Arabidopsis thaliana, UniProt O23553); experiment: GC-MS maltose assay, Lineweaver-Burk and non-linear regression; conditions: substrate maltohexaose 2.5-25 mM; mixed inhibition; 50 mM sodium acetate, 5 mM DTT, 5 mM EDTA, pH 6.0, 25°C
T1 sequence (O23553 50-548): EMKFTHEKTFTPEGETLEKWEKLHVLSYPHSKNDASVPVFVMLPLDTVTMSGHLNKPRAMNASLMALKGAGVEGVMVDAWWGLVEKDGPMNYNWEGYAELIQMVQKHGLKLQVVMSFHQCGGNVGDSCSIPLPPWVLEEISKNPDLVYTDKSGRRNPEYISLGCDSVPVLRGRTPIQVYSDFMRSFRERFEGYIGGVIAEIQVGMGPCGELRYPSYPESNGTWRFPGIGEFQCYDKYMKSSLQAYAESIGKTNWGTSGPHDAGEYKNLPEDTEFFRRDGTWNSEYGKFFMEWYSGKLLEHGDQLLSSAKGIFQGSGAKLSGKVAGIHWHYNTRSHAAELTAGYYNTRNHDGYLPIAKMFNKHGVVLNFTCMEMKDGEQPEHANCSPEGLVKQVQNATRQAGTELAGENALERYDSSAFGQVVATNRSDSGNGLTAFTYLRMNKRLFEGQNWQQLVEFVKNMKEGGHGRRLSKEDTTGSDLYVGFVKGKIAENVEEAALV

[2] = molecular target: T2, BAM1 (Arabidopsis thaliana, UniProt Q9LIR6); experiment: Betamyl colorimetric assay, p-nitrophenol release; conditions: 2.5 mM substrate, 0.1 M maleic acid pH 6.2, 40°C; enzyme pre-treated with 20 mM DTT
T2 sequence (Q9LIR6 42-575): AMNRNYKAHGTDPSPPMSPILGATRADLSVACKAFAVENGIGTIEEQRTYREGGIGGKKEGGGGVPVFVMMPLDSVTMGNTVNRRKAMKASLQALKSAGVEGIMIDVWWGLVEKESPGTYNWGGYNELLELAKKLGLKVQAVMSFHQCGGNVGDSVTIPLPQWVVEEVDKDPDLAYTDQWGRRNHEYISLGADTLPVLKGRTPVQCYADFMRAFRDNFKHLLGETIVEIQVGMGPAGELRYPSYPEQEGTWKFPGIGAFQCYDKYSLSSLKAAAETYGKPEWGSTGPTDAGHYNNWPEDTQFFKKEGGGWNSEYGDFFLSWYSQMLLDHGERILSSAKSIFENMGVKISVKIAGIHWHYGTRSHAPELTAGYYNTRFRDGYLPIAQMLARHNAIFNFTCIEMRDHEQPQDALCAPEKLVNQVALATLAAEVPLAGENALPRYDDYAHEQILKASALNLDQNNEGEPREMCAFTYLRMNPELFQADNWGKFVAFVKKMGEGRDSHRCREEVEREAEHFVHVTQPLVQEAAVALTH

[3] = molecular target: T3, barley BAM (Hordeum vulgare, UniProt P16098); experiment: Betamyl colorimetric assay, p-nitrophenol release; conditions: 2.5 mM substrate, 0.1 M maleic acid pH 6.2, 40°C; enzyme pre-treated with 20 mM DTT
T3 construct: gene BMY1; commercial barley seed beta-amylase (Sigma A7130), native preparation, lyophilised powder
T3 sequence (P16098 whole entry): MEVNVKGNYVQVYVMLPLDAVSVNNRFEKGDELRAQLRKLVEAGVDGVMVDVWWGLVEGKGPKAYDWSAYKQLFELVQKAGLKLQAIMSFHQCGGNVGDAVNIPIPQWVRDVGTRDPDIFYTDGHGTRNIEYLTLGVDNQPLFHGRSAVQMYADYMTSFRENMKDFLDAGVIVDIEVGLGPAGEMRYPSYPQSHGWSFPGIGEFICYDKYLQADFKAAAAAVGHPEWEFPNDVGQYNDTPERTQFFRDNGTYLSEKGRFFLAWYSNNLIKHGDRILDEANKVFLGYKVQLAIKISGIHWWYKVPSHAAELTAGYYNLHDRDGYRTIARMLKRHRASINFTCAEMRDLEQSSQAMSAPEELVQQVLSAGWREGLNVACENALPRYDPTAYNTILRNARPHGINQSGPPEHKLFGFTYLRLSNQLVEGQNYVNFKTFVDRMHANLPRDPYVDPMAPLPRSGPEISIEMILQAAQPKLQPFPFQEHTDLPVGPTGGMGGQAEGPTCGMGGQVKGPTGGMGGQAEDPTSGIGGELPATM

SMILES: OC[C@H]1O[C@H](O[C@H]2[C@H](O)[C@@H](O)[C@@H](O[C@H]3[C@H](O)[C@@H](O)C(O)O[C@@H]3CO)O[C@@H]2CO)[C@H](O)[C@@H](O)[C@@H]1O (stereo partly drawn) [G3, maltotriose]
- Ki [1]: 7.5 mM

SMILES: O=[N+]([O-])c1ccc(O[C@H]2O[C@H](CO)[C@@H](O[C@H]3O[C@H](CO)[C@@H](O[C@H]4O[C@H](CO)[C@@H](O[C@H]5O[C@H](CO)[C@@H](O[C@H]6O[C@H](CO)[C@@H](O)[C@H](O)[C@H]6O)[C@H](O)[C@H]5O)[C@H](O)[C@H]4O)[C@H](O)[C@H]3O)[C@H](O)[C@H]2O)cc1 [PNPG5, p-nitrophenyl maltopentaoside]
- Betamyl colorimetric assay, p-nitrophenol release [2]: we assayed recombinant BAM1 and commercially-purchased barley seed β-amylase, under the same conditions
- Betamyl colorimetric assay, p-nitrophenol release [3]: we assayed recombinant BAM1 and commercially-purchased barley seed β-amylase, under the same conditions

— article PMC5321445, “Inhibition of Arabidopsis chloroplast β-amylase BAM3 by maltotriose suggests a mechanism for the control of transitory leaf starch mobilisation” (PLoS ONE, 2017)
